From US11001581B2, “Compounds which inhibit RNA polymerase, compositions including such compounds, and their use” (THE JOHNS HOPKINS UNIVERSITY, priority 2014, dated 2021)

What was measured:
RPA194 = experiment: Determination of RPA194 IC50 (immunofluorescence image analysis of RPA194 degradation); type: cell-based; details: U2OS cells, 3 h treatment, 0.1-10 μM, fold change to control, three-parameter fit
Text: (§1) Immunofluorescence, Epifluorescence Microscopy and Image Analysis. […] Cells were stained for RPA194 (C-1, Santa Cruz Biotechnology) and NCL (4E2, Abeam). […] DNA was counterstained with DAPI (Invitrogen). Images were captured using Axioplan2 fluorescence microscope (Zeiss) equipped with AxioCam HRc CCD-camera and AxioVision 4.5 software using EC Plan-Neofluar 20×/0.75 objective (Zeiss). […] Hue saturation and brightness range were defined individually for RPA194 and NCL. All values were normalized to the DNA content. Two-four fields of each treatment were recorded and quantification was based on an average of 200 cells.
(§2) Determination of RPA194 and NCL IC50. U2OS cells grown on coverslips were treated the compounds at 0.1, 0.5, 1, 5 and 10 μM, or vehicle (DMSO)-treated for 3 h and fixed and stained as above. All compounds, except when indicated, were tested in duplicate independent biological experiments Immunostaining for NCL and RPA194 was conducted separately, and cells were counterstained for DNA. Two-four fields of each treatment were captured using epifluorescence microscopy as above, and contained on average of 200 cells/analysis. […] Hue saturation and brightness range were defined individually for RPA194 and NCL, and all values were normalized to the DNA content.

NCL = experiment: Determination of NCL IC50 (loss of NCL nucleolar intensity, immunofluorescence image analysis); type: cell-based; details: U2OS cells, 3 h treatment, 0.1-10 μM, fold change to control, three-parameter fit
Text: as §1
as §2, with “U2OS cells grown on coverslips were treated the compounds at 0.1, 0.5, 1, 5 and 10 μM, or vehicle (DMSO)-treated for 3 h and fixed and stained as above.” left out

tumor burden = details: earlier studies of the inventors; cited from earlier work
NCI60 cancer cell lines = details: earlier studies of the inventors; cited from earlier work

| SMILES | IC50 (RPA194) | IC50 (NCL) | tumor burden in mouse xenograft assays (tumor burden) | anticancer activity in NCI60 cancer cell lines (NCI60 cancer cell lines) |
| --- | --- | --- | --- | --- |
| CCN(CC)C1CCN(C(=O)c2cccn3c(=O)c4cc5ccccc5cc4nc23)C1 (stereo not drawn) [Compound 19, 4-[3-(diethylamino)pyrrolidine-1-carbonyl]-12H-benzo[g]pyrido[2,1-b]quinazoline-12-one] | 32 µM | 11 µM | – | – |
| CN(C)CCNC(=O)c1cccn2c(=O)c3cc4ccccc4cc3nc12 [BMH-21, 12H-Benzo[g]pyrido[2,1-b]quinazoline-4-carboxamide, N-[2(dimethylamino)ethyl]-12-oxo] | – | – | reduced tumor burden | broad and potent anticancer activity |
| CC(C)(N)CNC(=O)c1cccn2c(=O)c3cc4ccccc4cc3nc12 [Compound 30, N-(2-amino-2-methyl-propyl)-12-oxo-12H-benzo[g]pyrido[2,1-b]quinazoline-4-carboxamide] | 0.27 µM | 0.2 µM | – | – |
| CN1CC(NC(=O)c2cccn3c(=O)c4cc5ccccc5cc4nc23)C1 [Compound 29, N-(1-methylazetidin-3-yl)-12-oxo-12H-benzo[g]pyrido[2,1-b]quinazoline-4-carboxamide] | 0.9 µM | 0.47 µM | – | – |

The next lines start with results.

| IC50 (RPA194) | IC50 (NCL) | SMILES | tumor burden in mouse xenograft assays (tumor burden) | anticancer activity in NCI60 cancer cell lines (NCI60 cancer cell lines) |
| --- | --- | --- | --- | --- |
| 0.1 µM | 0.1 µM | CC(N)CNC(=O)c1cccn2c(=O)c3cc4ccccc4cc3nc12 (stereo not drawn) [Compound 32, N-(2-aminopropyl)-12-oxo-12H-benzo[g]pyrido[2,1-b]quinazoline-4-carboxamide] | – | – |
| 0.12 µM | 0.17 µM | C[C@H](N)CNC(=O)c1cccn2c(=O)c3cc4ccccc4cc3nc12 [Compound 35, N-[(2S)-2-aminopropyl]-12-oxo-12H-benzo[g]pyrido[2,1-b]quinazoline-4-carboxamide] | – | – |
| 3.5 µM | > 100 µM | O=C(NCCc1ccncc1)c1cccn2c(=O)c3cc4ccccc4cc3nc12 [Compound 37, 12-oxo-N-[2-(4-pyridyl)ethyl]-12H-benzo[g]pyrido[2,1-b]quinazoline-4-carboxamide] | – | – |
| 0.11 µM | 0.81 µM | C[C@@H](N)CNC(=O)c1cccn2c(=O)c3cc4ccccc4cc3nc12 [Compound 33, N-[(2R)-2-aminopropyl]-12-oxo-12H-benzo[g]pyrido[2,1-b]quinazoline-4-carboxamide] | – | – |
| 0.16 µM | 0.14 µM | CN(C)C(C)(C)CNC(=O)c1cccn2c(=O)c3cc4ccccc4cc3nc12 [Compound 31, N-[2-(dimethylamino)-2-methyl-propyl]-12-oxo-12H-benzo[g]pyrido[2,1-b]quinazoline-4-carboxamide] | – | – |
